From paper PMC9716045 (Journal of Pesticide Science, 2022)

Columns and labels:
DHODH of mice = details: read-out: IC50 value for DHODH; cited from earlier work
DHODH of rats = details: read-out: IC50 value for DHODH; cited from earlier work
DHODH of humans = details: read-out: IC50 value for DHODH; cited from earlier work
DHODH of A. fumigatus = details: read-out: IC50 value for DHODH; cited from earlier work
P. oryzae 40901 = type: cell-based, Pyricularia oryzae
P. oryzae = type: cell-based, Pyricularia oryzae
Fusarium graminearum = details: cited from earlier work
Sclerotinia sclerotiorum = details: cited from earlier work

## C/C(O)=C(\C#N)C(=O)Nc1ccc(C(F)(F)F)cc1 [A77-1726, teriflunomide]
DHODH of mice
  IC50: 0.082 ± 0.021 µM
DHODH of rats
  IC50: 0.018 ± 0.003 µM
DHODH of humans
  IC50: 0.773 ± 0.078 µM

## Cc1cc(-c2ccccc2)c(C(=O)C(=O)Nc2ccc(N3CCN(c4ncc(F)cn4)CC3)cc2)n1C [F901318, olorofim]
DHODH of A. fumigatus
  IC50: 0.044 ± 0.01 µM

## CC1(C)N=C(c2cnc3ccccc3c2)c2ccccc2C1(F)F [quinofumelin, 3-(4,4-difluoro-3,3-dimethyl-3,4-dihydroisoquinolin-1-yl)quinoline]
P. oryzae 40901
  mycelial growth on minimal medium agar plates: could not be recognized
  mycelial growth with exogenous orotate at high quinofumelin concentration: slow mycelial growth
  recovery of mycelial growth by exogenous dihydroorotate: did not recover
  recovery of mycelial growth by exogenous orotate: recovered
  recovery of mycelial growth by exogenous uracil: restored
P. oryzae
  antifungal activity on PDA medium: moderate antifungal activity
Fusarium graminearum
  antifungal activity on PDA medium: strong antifungal activity
Sclerotinia sclerotiorum
  antifungal activity on PDA medium: strong antifungal activity
